# Reference: patent EP4782453A1 (Beyang Therapeutics Co., Ltd., priority 2023, dated 2025)
# Read-outs that look alike come from different tables or passages of the source.
# Molecular target: T1, Menin-MLL (Homo sapiens, UniProt O00255)
# T1 construct: His-Menin (M1-L615 end); purchased BIORTUS BP9210
# T1 sequence (O00255 1-615 isoform O00255-1): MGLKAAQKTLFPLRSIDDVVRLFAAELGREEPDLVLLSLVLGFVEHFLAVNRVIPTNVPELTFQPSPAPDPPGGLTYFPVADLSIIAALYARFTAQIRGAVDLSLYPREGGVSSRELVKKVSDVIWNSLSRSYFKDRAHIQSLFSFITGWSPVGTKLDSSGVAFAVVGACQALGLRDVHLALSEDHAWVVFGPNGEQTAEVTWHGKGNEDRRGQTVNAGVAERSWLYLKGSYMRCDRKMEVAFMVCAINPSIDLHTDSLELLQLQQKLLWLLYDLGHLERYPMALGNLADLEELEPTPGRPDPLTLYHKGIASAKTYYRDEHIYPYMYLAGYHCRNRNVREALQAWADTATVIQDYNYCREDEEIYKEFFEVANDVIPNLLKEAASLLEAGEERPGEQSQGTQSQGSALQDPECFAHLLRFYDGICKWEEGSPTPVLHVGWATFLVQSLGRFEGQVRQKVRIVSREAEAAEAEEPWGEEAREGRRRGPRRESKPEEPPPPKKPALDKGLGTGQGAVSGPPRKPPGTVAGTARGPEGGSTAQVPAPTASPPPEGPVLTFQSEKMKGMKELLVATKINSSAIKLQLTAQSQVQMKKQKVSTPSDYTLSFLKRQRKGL
# Experiment: Inhibitory activity against Menin-MLL binding (fluorescence polarization)
# Settings: 150 nM His-Menin, 15 nM FITC-MLL, 25°C for 60 min
# How it was run: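 His-Menin (M1-L615, 150 nM) preincubated with compound 15 min at 25 °C in HEPES pH 7.5, 50 mM NaCl, 1 mM DTT, 0.01% BSA, then 15 nM FITC-MLL4-43 peptide added for 60 min at 25 °C. Fluorescence polarization read; IC50 from 4-parameter logistic fit, duplicates.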
# [1] = fluorescence polarization, read-out: Menin-MLL IC50
# [2] = Menin-MLL IC50, fluorescence polarization
SMILES,IC50 [1],IC50 [2]
CCN(C(=O)c1cc(F)ccc1-c1cc(C2CCN(C[C@H]3C[C@@H](NS(=O)(=O)CC)C3)C2)cn2c(C)ncc12)C(C)C (stereo partly shown) [Example 103],70.5 nM,–
CCN(C(=O)c1cc(F)ccc1-c1cc(N2CCN(C(=O)[C@H]3CCCN3)CC2)cn2c(C)ncc12)C(C)C [Example 106],153 nM,–
"CCN(C(=O)c1cc(F)ccc1-c1cc(C2CN(C(=O)C3NC4CCC3CC4)C2)cn2c(C)nc(F)c12)C(C)C [Example 107, N-ethyl-5-fluoro-2-(1-fluoro-3-methyl-6-{1-[(1R,3S,4S)-2-azabicyclo[2.2.2]octan-3-carbonyl]azacyclobutan-3-yl}imidazo[1,5-a]pyridin-8-yl)-N-(isopropyl)benzamide]",–,4.5 nM
"CCN(C(=O)c1cc(F)ccc1-c1cc(C2CN(C(=O)C3NC4CCC3CC4)C2)cn2c(C)nc(Cl)c12)C(C)C [Example 108, 2-(1-chloro-3-methyl-6-{1-[(1R,3S,4S)-2-azabicyclo[2.2.2]octan-3-carbonyl]azacyclobutan-3-yl}imidazo[1,5-a]pyridin-8-yl)-N-ethyl-5-fluoro-N-(isopropyl)benzamide]",–,7.2 nM
CCN(C(=O)c1cc(F)ccc1-c1cc(N2CCN(C(=O)[C@@H]3C[C@H](OC)CN3)CC2)cn2c(C)nc(Cl)c12)C(C)C [Example 109],96 nM,–
"CCN(C(=O)c1cc(F)ccc1-c1cc(C2=CCN(C(=O)C3NC4CCC3CC4)CC2)n2ccncc12)C(C)C [Example 110, N-ethyl-5-fluoro-N-(isopropyl)-2-(6-{1-[(1R,3S,4S)-2-azabicyclo[2.2.2]octan-3-carbonyl]-1,2,3,6-tetrahydropyridin-4-yl}pyrrolo[1,2-a]pyrazin-8-yl)benzamide]",–,25 nM
CCN(C(=O)c1cc(F)ccc1-c1cc(N2CCN(C(=O)[C@@H]3CCC(C)(C)N3)CC2)cn2c(C)nc(Cl)c12)C(C)C [Example 111],–,38 nM
CCN(C(=O)c1cc(F)ccc1-c1cc(N2CCN(C(=O)[C@@H]3CC4CCCCC4N3)CC2)cn2c(C)nc(Cl)c12)C(C)C (stereo partly shown) [Example 112],24 nM,–
"CCN(C(=O)c1cc(F)ccc1-c1cc(C2=CCN(C(=O)C3NC4CCC3CC4)CC2)c2ccncn12)C(C)C [Example 113, N-ethyl-5-fluoro-N-(isopropyl)-2-(5-{1-[(1R,3S,4S)-2-azabicyclo[2.2.2]octan-3-carbonyl]-1,2,3,6-tetrahydropyridin-4-yl}pyrrolo[1,2-c]pyrimidin-7-yl)benzamide]",–,201 nM
CCN(C(=O)c1cc(F)ccc1-c1cc(N2CCN(C(=O)[C@@H]3CCCN3)CC2)cn2c(C)nc(Cl)c12)C(C)C [Example 114],19 nM,–
"CCN(C(=O)c1cc(F)ccc1-c1cc(N2CCN(C(=O)[C@@H]3CCCN3)CC2)c(Cl)n2c(C)ncc12)C(C)C [Example 115, 2-(5-chloro-3-methyl-6-{4-[(2S)-pyrrolidin-2-carbonyl]piperazin-1-yl}imidazo[1,5-a]pyridin-8-yl)-N-ethyl-5-fluoro-N-(isopropyl)benzamide]",152 nM,–
CCN(C(=O)c1cc(F)ccc1-c1cc(N2CCN(C(=O)[C@@H]3Cc4ccccc4CN3)CC2)cn2c(C)nc(Cl)c12)C(C)C [Example 116],52 nM,–
C=C1CN[C@H](C(=O)N2CCN(c3cc(-c4ccc(F)cc4C(=O)N(CC)C(C)C)c4c(Cl)nc(C)n4c3)CC2)C1 [Example 117],21 nM,–
Cc1ncc2c(-c3ccc(F)cc3C(=O)N(CC(F)F)C(C)C)cc(N3CCN(C(=O)[C@@H]4CCCN4)CC3)cn12 [Example 119],41 nM,–
CCN(C(=O)c1cc(F)ccc1-c1cc(N2CCN(C(=O)C3NCCc4ccccc43)CC2)cn2c(C)nc(Cl)c12)C(C)C (stereo not shown) [Example 122],217 nM,–
CCN(C(=O)c1cc(F)ccc1-c1cc(N2CCN(C(=O)[C@@H]3CCCNC3)CC2)cn2c(C)ncc12)C(C)C [Example 124],80.5 nM,–
CCN(C(=O)c1cc(F)ccc1-c1cc(C2CN(C(=O)[C@@H]3CCCN3)C2)cn2c(C)nc(Cl)c12)C(C)C [Example 125],–,26.5 nM
CCN(C(=O)c1cc(F)ccc1-c1cc(C2CN(C(=O)[C@@H]3CCCCN3)C2)cn2c(C)nc(Cl)c12)C(C)C [Example 126],–,19 nM
CCN(C(=O)c1cc(F)ccc1-c1cc(N2CCN(C(=O)C3NCCC3c3ccccc3)CC2)cn2c(C)nc(Cl)c12)C(C)C (stereo not shown) [Example 127],73.5 nM,–
C=C1CN[C@H](C(=O)N2CC(c3cc(-c4ccc(F)cc4C(=O)N(CC)C(C)C)c4c(F)nc(C)n4c3)C2)C1 [Example 130],62 nM,–
CCS(=O)(=O)N[C@H]1CC[C@H](CN2CC(c3cc(-c4ccc(F)cc4C(=O)N4CCOC[C@@H]4C)c4cnc(C)n4c3)C2)CC1 [Example 135],102 nM,–
"CCN(C(=O)c1cc(F)ccc1-c1cc(C2CCN(C[C@H]3CC[C@H](NS(=O)(=O)CC)CC3)CC2)nn2c(C)ncc12)C(C)C [Example 136, N-ethyl-5-fluoro-2-[7-methyl-2-(1-{[(1r,4r)-4-ethanesulfonamidocyclohexyl]methyl}piperidin-4-yl)imidazo[1,5-b]pyridazin-4-yl]-N-(isopropyl)benzamide]",–,129 nM
"Cc1ncc2c(-c3ccc(F)cc3C(=O)N(CC(F)F)C(C)C)cc(N3CCN(C(=O)[C@@H]4CCC(c5cccc(F)c5)N4)CC3)cn12 (stereo partly drawn) [Example 140, N-(2,2-difluoroethyl)-5-fluoro-2-(6-{4-[(2S)-5-(3-fluorophenyl)pyrrolidin-2-carbonyl]piperazin-1-yl}-3-methylimidazo[1,5-a]pyridin-8-yl)-N-(isopropyl)benzamide]",161 nM,–
"CCS(=O)(=O)NC1CCC(CN2CC(c3cc(-c4ccc(F)cc4C(=O)N(CC(F)F)C(C)C)c4cnccn34)C2)CC1 (stereo not shown) [Example 143, N-(2,2-difluoroethyl)-2-(6-{1-[(4-ethanesulfonamidocyclohexyl)methyl]azacyclobutan-3-yl}pyrrolo[1,2-a]pyrazin-8-yl)-5-fluoro-N-(isopropyl)benzamide]",2.7 nM,–
C=C1CN[C@H](C(=O)N2CCC(c3cc(-c4ccc(F)cc4C(=O)N(CC(F)F)C(C)C)c4cnc(C)n4c3)CC2)C1 [Example 144],51 nM,–
"COCCN(C)CCCC(C(C)C)N1CC(c2cc(-c3ccc(F)cc3C(=O)N(CC(F)F)C(C)C)c3cnccn23)C1 (stereo not shown) [Example 147, N-(2,2-difluoroethyl)-5-fluoro-2-[6-(1-{6-[(2-methoxyethyl)(methyl)amino]-2-methylhexan-3-yl}azacyclobutan-3-yl)pyrrolo[1,2-a]pyrazin-8-yl]-N-(isopropyl)benzamide]",140 nM,–
"CCS(=O)(=O)N[C@@H]1CC[C@@H](CN2CC(c3cc(-c4ccc(F)cc4C(=O)N(CC(F)F)C(C)C)c4cnn(C)c4c3)C2)OC1 [Example 152, N-(2,2-difluoroethyl)-2-[6-(1-{[(2S,5R)-5-ethanesulfonamidooxacyclohexan-2-yl]methyl}azacyclobutan-3-yl)-1-methyl-1H-indazol-4-yl]-5-fluoro-N-(isopropyl)benzamide]",74.5 nM,–
"CCS(=O)(=O)N[C@H]1CC[C@H](CN2CC(c3cc(-c4ccc(F)cc4C(=O)N(CC(F)F)C(C)C)c4cnn(C)c4c3)C2)CC1 [Example 153, N-(2,2-difluoroethyl)-5-fluoro-2-[1-methyl-6-(1-{[(1r,4r)-4-ethanesulfonamidocyclohexyl]methyl}-azacyclobutan-3-yl)-1H-indazol-4-yl]-N-(isopropyl)benzamide]",–,31 nM
